In this assay the test system is S. cerevisiae SKN7-toxicity growth rescue, plate reader. Description: SKN7 mediated toxicity in Saccharomyces cerevisiae, growth rescue counterscreen, dose confirmation (AID 624258).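 Note: growth read after three days of incubation at 30 °C.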

Structures are written as SMILES. Active and inactive are the calls of the source. The rule behind the calls is not given here.

Turning to `O=C(C1CC2C=CC1C2)N1CCN(c2ccccc2)CC1` (stereo unspecified), the AC40 is 3.11 µM. In the case of `O=C1C=C(Nc2cccnc2)c2ccccc2C1=O` it was 11 µM.

Regarding `Cc1ccc(NC(=O)c2cc(N3C(=O)C=CC3=O)ccc2Cl)cc1C`, the AC40 was 0.342 µM. The same measure for `Cc1ccc(CN=Cc2[nH]c3ccc(Br)c(Cl)c3c2O)cc1`: 9.03 µM; for `O=[N+]([O-])c1ccc(-c2nc(-c3cccs3)c(-c3cccs3)[nH]2)cc1`: 4.72 µM; for `COc1ccc2nc(NN=C(C)c3ccccn3)cc(C)c2c1`: 3.23 µM.

Take `O=C(O)c1ccc(N/N=C/C2=C(N3CCOCC3)C(=C\c3ccccc3)/CC2)cc1`: the AC40 is 5.01 µM. In the case of `O=S(=O)(CCSc1nc2ccccc2s1)c1nc2ccccc2s1` it was 2.43 µM; in that of `CCc1ccc(NC(=O)CSc2ccc(-c3ccccn3)nn2)cc1`, 0.968 µM.

As for `O=C1CC(O)(C(F)(F)F)Oc2c1ccc1ccccc21` (stereo unspecified), the AC40 was 0.814 µM. In the case of `COc1ccc(-c2cc(C(=O)N3CCN(c4ccccc4F)CC3)c3ccccc3n2)c(OC)c1`, the AC40 is > 19.5 µM (inactive).

As for `CO/N=C/c1ccc(Oc2ccc([N+](=O)[O-])cc2[N+](=O)[O-])c(OC)c1`, the AC40 was 18.5 µM.

Turning to `O=S(=O)(c1cc(C(F)(F)F)ccc1Cl)N1CCN(c2ncnc3ccccc23)CC1`, the AC40 was 17.1 µM.

With `Cc1csc(NC(=S)Nc2cccc(Cl)c2)n1`, the AC40 is 11.6 µM. In the case of `Nc1[nH]c(=O)ncc1F` it was 1.83 µM. The same measure for `Cc1cc2[nH]c3c4ccccc4nc(C)c3c2cc1C`: 11.2 µM; for `CC1CC(C)CC(C)C(O)C(C#N)=CC=CCC(C2CCCC2C(=O)O)OC(=O)CC(O)C(C)C1` (stereo unspecified): 10.3 µM.

Consider `O=C(CSc1ccc(-c2ccccn2)nn1)NC1CCCC1`, for which the AC40 is 7.77 µM.

Consider `O=C1/C(=C/c2cccs2)SC(=S)N1NS(=O)(=O)c1ccccc1`, for which the AC40 was 3.71 µM.

Regarding `O=C(CSc1nnc(-c2ccccc2O)n1Cc1ccccc1)NNC(=O)c1ccccc1O`, the AC40 is 6.84 µM.

Take `CC(C)(C)n1nc(-c2ccc(F)cc2)c2c(N)ncnc21`: the AC40 was 15.4 µM. In the case of `Cc1ccc(N(CN2C(=O)c3ccccc3C2=O)C(=O)c2ccc([N+](=O)[O-])cc2[N+](=O)[O-])cc1` it was 7.16 µM; in that of `CC(C)(C)c1ccc(Oc2ccc(N)cc2)cc1`, 1.95 µM; in that of `S=c1[nH]nc(-c2ccco2)n1/N=C/C(Cl)=C/c1ccccc1`, 10.8 µM. The same measure for `Cc1ccc(S(=O)(=O)N2[C@@H](c3ccc(Cl)cc3)C(C(=O)O)=CC[C@H]2c2ccc(Cl)c(Cl)c2)cc1`: 3.31 µM; for `O=[N+]([O-])c1cc(C(F)(F)F)ccc1NCCc1c[nH]c2ccc(O)cc12`: 1.11 µM. In the case of `CC(/C=N/n1c(COc2ccccc2)n[nH]c1=S)=C\c1ccccc1`, the AC40 is > 19.5 µM (inactive). As for `CC/C(=N\Nc1ccc([N+](=O)[O-])cc1)c1ccccc1`, the AC40 is 1.62 µM. In the case of `Cc1onc(-c2c(Cl)cccc2Cl)c1C(=O)N/N=C(\N)COc1ccc(Cl)cc1` it was 2.55 µM; in that of `Cc1ccccc1N1CCN(C2=NC(=O)/C(=C\c3cccs3)S2)CC1`, 4.83 µM. In the case of `COc1cccc2c1C(=O)c1c(O)c3c(c(O)c1C2=O)CC(O)(C(C)=O)CC3OC1CC(N(C)C)C(O)C(C)O1` (stereo unspecified) it was 2.85 µM; in that of `O=C(N/N=C/c1cc(Br)ccc1O)c1ccccc1Cl`, 0.659 µM; in that of `CCCCCCCCCCOC(=O)Cn1c(COc2ccccc2)[n+](C)c2ccccc21`, 3.02 µM. Consider `COc1ccc(CNC(=O)c2c(C)oc3c2C(=O)c2ccccc2C3=O)cc1`, for which the AC40 was 8.26 µM. In the case of `CCCCOc1ccc2c(c1)C(=O)c1cc(O)ccc1-2` it was 1.93 µM; in that of `Oc1c(C(Nc2cccc(C(F)(F)F)c2)c2cccnc2)ccc2cccnc12` (stereo unspecified), 2.73 µM; in that of `Oc1ccc(-c2nc3ccccc3s2)c(O)c1`, 0.726 µM.

Turning to `O=C(NNC(=O)c1cc(Cl)ccc1O)c1cccc(S(=O)(=O)N2CCOCC2)c1`, the AC40 is 3.31 µM. In the case of `O=C1Cc2ccccc2C(=O)N1CCc1ccccc1` it was 10.5 µM; in that of `COC(=O)C1CCN(C2CC(=O)N(c3cc(C)cc(C)c3)C2=O)CC1` (stereo unspecified), 6.63 µM. The same measure for `Cc1cc(/C=C2\SC(=S)NC2=O)c(C)n1-c1cccc(O)c1`: 6.18 µM; for `COc1ccccc1CNC(=O)CSc1ccc(-c2ccccn2)nn1`: 10.3 µM; for `CCOC(=O)c1ccc(NC(=O)CC2OCCN(CC)C2=O)cc1` (stereo unspecified): 5.81 µM. In the case of `CCc1ccccc1OCC(=O)Nc1nc(-c2cccnc2)cs1` it was 1.23 µM.

In the case of `C[C@]12CCC3C(CC[C@H]4C[C@@H](O)CC[C@]34C)C1CC[C@@H]2OC(=O)[C@H](N)CCCCN` (stereo partly specified), the AC40 is 11 µM. For `Oc1ccc(Cl)cc1CNc1cccc2cccnc12`, the AC40 is 0.156 µM. For the compound `COc1ccc(/C=C(\C#N)c2c[nH]c3ccccc23)cc1`, the AC40 was 17.6 µM.

As to `Cc1ccc(C)c(C(=O)O/N=C(\N)c2ccc(Br)cc2)c1`, the AC40 is 3.86 µM. Turning to `O=S(=O)(CCSc1ccccn1)c1nc2ccccc2s1`, the AC40 is 6.53 µM. With `O=C(CSc1ccc(-c2ccccn2)nn1)NCc1ccccc1`, the AC40 is 7.08 µM. Turning to `CCc1ccc([C@@H]2CC=C(C(=O)O)[C@H](c3ccc(Cl)cc3)N2S(=O)(=O)c2ccc(C)cc2)cc1`, the AC40 was 4.51 µM.

For the compound `O=C1Nc2c(Cl)cc(Cl)cc2C1=O`, the AC40 is > 19.5 µM (inactive). For `Cc1ccc(COc2ccc(Br)cc2/C=N/O)cc1`, the AC40 is 1.27 µM.

For the compound `Cc1nn(CCC(N)=S)c2nc(-c3cccs3)cc(C(F)(F)F)c12`, the AC40 is 14.1 µM.

`C[C@H](O)[C@H]1CC[C@H]2[C@@H]3CCC4=CC(=O)CC[C@]4(C)[C@H]3CC[C@]12C`: the AC40 was 2.05 µM. With `COC1=CC(=O)c2c(ccc3ncnc(N)c23)C1=O`, the AC40 was 10.1 µM. In the case of `COc1cc(/C=C2\SC(=S)N(NS(=O)(=O)c3ccc(C)cc3)C2=O)ccc1O` it was 1.64 µM; in that of `O=C1C(=C(I)I)c2ccccc2-c2ccccc21`, 2.07 µM. In the case of `CC(C)(C)C(=O)C(Oc1ccc(Cl)cc1)n1cncn1` (stereo unspecified) it was 2.02 µM; in that of `CCCCCCCCNC(=O)/C(C#N)=C/c1ccccc1[N+](=O)[O-]`, 3.17 µM. As for `CCOC(=O)N1CCN(S(=O)(=O)c2ccc(C(=O)NNc3nc4ccc(Cl)cc4s3)cc2)CC1`, the AC40 was 6.89 µM. For `Cc1ccc(-n2nnnc2C(Cl)c2nnnn2-c2ccc(C)cc2)cc1`, the AC40 is 0.497 µM. The same measure for `CN(C1=C(NC(=O)c2ccc(Cl)cc2)C(=O)c2ccccc2C1=O)c1ccccc1`: 4.87 µM.

Regarding `Cc1csc2nc(O)c(C(=O)NCCCc3ccccc3)c(=O)n12`, the AC40 was 0.801 µM. Consider `Cc1cc(/C=N/n2cnnc2)c(C)n1-c1ccc(OCc2ccc(F)cc2)cc1`, for which the AC40 was 0.516 µM.

In the case of `CC1CCCCC1NC(=O)/C(C#N)=C/c1ccccc1F` (stereo unspecified), the AC40 was 2.04 µM. In the case of `C=CS(=O)(=O)c1sc(Cl)c(N2CCOCC2)c1[N+](=O)[O-]` it was 0.653 µM; in that of `CC(C)(C)c1ccc(Cn2ccc(-c3ccc4c(c3)OCO4)n2)cc1`, 8.82 µM; in that of `Cc1cc([N+](=O)[O-])c(NC2CCCCC2)c([N+](=O)[O-])c1`, 10.1 µM. The same measure for `CCN(CC)c1ccc(/C=N/NC(=O)c2c(Cl)cnn2C)c(O)c1`: 0.878 µM; for `CC(=O)C1CCC2C3CC=C4CC(SC(=N)N)CCC4(C)C3CCC12C` (stereo unspecified): 1.66 µM.

These data come from PubChem BioAssay AID624258 (Broad Institute, 2012).
